Laboratory results reported in patent US11318190B2, “Methods and compositions for treating liver disease” (UNITED STATES GOVERNMENT AS REPRESENTED BY THE DEPARTMENT …, priority 2017, dated 2022).

Experiments:
[1] = system: human hepatic stellate cells (hHSC); experiment: hHSC activation by cholangiocyte supernatants from treated mice (qPCR); assay type: cell-based
Description: In vitro experiments were performed in human hepatic stellate cells (hHSC) that were purchased from ScienCell Research Laboratories (Carlsbad, Calif.) that were maintained in standard conditions.
[…] Activation of hHSCs was determined by qPCR for FN-1, TGF-β1, α-SMA, and collagen type-1a (Kennedy, L L et al., Knockout of microRNA-21 reduces biliary hyperplasia and liver fibrosis in cholestatic bile duct ligated mice, Lab Invest 96:1256-1267 (2016)).

[2] = system: large IMCLs; experiment: Large IMCLs treated with secretin with/without LY2109761, or with TGF-β1 (Example 2); assay type: cell-based, mouse; settings: secretin 10 nM, 12 hr
Description: Cholangiocytes were obtained by immunoaffinity separation as described herein above, using a monoclonal antibody (a gift from Dr. R. Faris, Brown University, Providence, R.I.) that is expressed by all intrahepatic cholangiocytes. HSCs from the selected groups of mice were isolated by LCM as described previously in Wu, N et al., The secretin/secretin receptor axis modulates liver fibrosis through changes in transforming growth factor-beta1 biliary secretion in mice, Hepatology (Baltimore, Md.) 64(3):865-879 (2016). Briefly, frozen liver sections (n=3, 10 μm thick) were incubated overnight with an anti-desmin (a marker of stellate cells) antibody. Then, desmin-positive cells were dissected from the slides using a LCM system Leica LMD7000 (Buffalo Grove, Ill.) and were collected before RNA extraction with the Arcturus PicoPure RNA isolation kit (Thermo Fisher Scientific CO, Mountain View, Calif.). The in vitro studies were performed in: (I) immortalized murine cholangiocyte lines derived from large cholangiocytes lining large ducts (IMCLs); and (ii) human hepatic stellate cell lines (HHSteCs; ScienCell Research Laboratories, Carlsbad, Calif.).
(§1) WT mice were treated for 1 wk with saline or secretin (Sct; 2.5 nmoles/kg body weight per day) before collecting cholangiocytes, HSCs and cholangiocyte supernatants. The levels of TGF-β1 were measured in short-term (6-hour) cultures of cholangiocytes by ELISA kits. Subsequently, we measured: (i) liver fibrosis by immunofluorescence for Col1a1 in liver sections and real-time PCR for TGF-β1, TFG-β1R, Col1a1, α-SMA and Fn1 in cholangiocytes and HSCs; and (ii) cellular senescence by immunofluorescence in liver sections for p16 and real-time PCR for p16 and p21 in cholangiocytes and HSC.
Biliary supernatants were obtained from normal and BDL WT mice and Sct^−/−, SR^−/− and Sct^−/−/SR^−/− BDL mice as well as normal WT mice treated with saline or secretin. HHSteCs were incubated with the aforementioned biliary supernatants (containing different levels of TGF-β1) for 24 hr (in the absence or presence of LY2109761) before measuring the expression of senescence and fibrosis genes by real-time PCR. Furthermore, HHSteCs were incubated with the supernatant of large IMCLs treated for 0.2% bovine serum albumin (basal) or secretin (10 nM) with/without LY2109761 for 6 hr before measuring the mRNA expression of fibrosis and senescence genes. To provide direct evidence that TGF-β1 directly modulates fibrosis and senescence of IMCLs and HHSteCs, these cells were stimulated with TGF-β1 (10 nM) for 24 hr before measuring the expression of PCNA as well as fibrosis and senescence genes by real-time PCR.

[3] = system: WT mice; experiment: WT mice treated 1 wk with secretin: TGF-β1, fibrosis, cellular senescence; assay type: in vivo, mouse
Description: as §1

[4] = system: IMCLs; experiment: IMCLs treated with Sct with/without microRNA 125b mimic precursor, TGF-β1 or r-VEGFA (Example 4); assay type: cell-based, mouse; settings: Sct 10 nM, 12 hr
Description: Cholangiocytes were obtained by immunoaffinity separation, Cholangiocytes were obtained by immunoaffinity separation as described herein above, using a monoclonal antibody (a gift from Dr. R. Faris, Brown University, Providence, R.I.) that is expressed by all intrahepatic cholangiocytes. Cell viability (greater than 97%) was assessed by trypan blue exclusion. HSCs were isolated by LCM as described herein above. Frozen liver sections (n=3, 10 μm thick) were incubated overnight with an antibody against desmin (marker of stellate cells). Following staining, desmin-positive HSCs were dissected from the slides by a LCM system Leica LMD7000 (Buffalo Grove, Ill.) and collected into a PCR tube before being analyzed. The RNA from HSCs was extracted with the Arcturus PicoPure RNA isolation kit (Thermo Fisher Scientific CO, Mountain View, Calif.). The in vitro studies were performed in our immortalized murine biliary cell lines (IMCLs) and human hepatic stellate cell lines (HHSteCs, Sciencell, Carlsbad, USA).
In biliary supernatants, the levels of TGF-β1 were measured by ELISA kits. […] We also evaluated by immunofluorescence the expression of VEGFR-2 in cell smears of IMCLs and HHSteCs. […]

secretin [Sct]
expression of FN-1, TGF-β1, α-SMA and collagen type-1a in hHSCs ([1]; cholangiocyte supernatants from treated dnTGF-βRII mice 12 wks): further enhanced | expression of FN-1, TGF-β1, α-SMA and collagen type-1a in hHSCs ([1]; cholangiocyte supernatants from treated dnTGF-βRII mice 34 wks): reduced | secretion of TGF-β1 and expression of fibrosis and senescence genes of large IMCLs [2]: increased | TGF-β1 levels in cholangiocyte supernatant ([3]; secretin 2.5 nmoles/kg/day 1 wk vs saline): enhanced levels | biliary immunoreactivity of Collagen I and mRNA of TGF-β1, TFG-β1R, Col1a1, α-SMA, Fn1 in cholangiocytes and HSCs ([3]; secretin 1 wk): increased | p16 immunoreactivity in liver sections, p16 and p21 expression in cholangiocytes ([3]; secretin 1 wk): enhanced | p16 and p21 mRNA expression in isolated HSCs ([3]; secretin 1 wk vs saline): reduced | TGF-β1 mRNA expression of IMCLs and TGF-β1 levels in IMCLs supernatant [4]: increased
